According to US8097656B2, “Nitrogenated trans-stilbene analogs, method for the obtention and medical applications thereof” (Dominion Pharmakine S.L, priority 2005, dated 2012):
Entries after “also recorded” stand apart in the source; their conditions may differ.

Columns and labels:
MB16 cells [1] = assay: MB16 cell adhesion to immobilized VCAM-1 substrates (H2O2-treated); assay type: cell-based, murine; settings: 2.5 μM preincubation; 10 μM H2O2
Experimental: MB16 and MA375 cell adhesion to immobilized VCAM-1 substrates. The MB16 and MA375 cell adhesion tests were conducted on immobilized VCAM-1 substrates (2 μg/ml of recombinant human VCAM-1, R&D Systems, Minneapolis, Minn.) on 96-well plates. To avoid non-specific attachment to the plastic, 0.5% BSA dissolved in PBS was added to the wells for 2 hours at ambient temperature prior to conducting the adhesion test. The melanoma cells were preincubated with 2.5 μM of the compounds to be tested (azaresveratrol, see Table 2; JE1:2, JE2:1 and JE2:2 see FIG. 2; JEM2:2-01 and JEM2:1-02 see FIG. 7; YEF02, YEF03, YEF07, YEF05B, YEF07B and YEF05H. see FIG. 9) for 30 minutes, to which 10 μM of hydrogen peroxide or 10 ng/ml of IL-18 were added, respectively for a further 24 hours. Afterward, the cells were washed and marked with the BCECF-AM fluorescent probe (carboxyfluorescein, 2′,7′-bis-(2-carboxy-ethyl)-5-(6)carboxyfluorescein aminoxymethyl ester). Thirty minutes later, a washing process was performed to remove the excess fluorochromium, the number of viable cells being calculated by means of the trypan blue exclusion test and (5×10^4 cells/well) being added to the 96-well plate. The co-culture plates were incubator-incubated at 37° C. for 1 hours. The percentage of cellular adhesion was calculated by measuring the fluorescence emitted by the adhered cells (obtained after washing the plate) with regard to the fluorescence emitted by the total number of cells added. The results in the figures are given in values related to the adhesion percentages of the untreated melanoma cells.

MB16 cells [2] = assay: In vitro proliferation of MB16 cells treated with recombinant IL-18; assay type: cell-based, murine; settings: 2.5 μM pretreatment; 10 ng/ml IL-18; 48 h
Experimental: In vitro Melanoma cell proliferation test. The MB16 or MA375 cells are seeded (2500 cells/well/200 μl) in DMEM medium (Dulbecco's modified Eagle's medium) with 10% fetal bovine serum (FBS). Once adhered, they were washed to remove the FBS and fresh medium was added in the presence or absence of 2.5 μM of the compounds to be tested. In the experiments with MA375, the compound azaresveratrol (see Table 4) was used, and in the experiments with MB16 cells, the compounds azaresveratrol, JE1:2, JE2:1 or JE2:2 (see FIG. 3) were used. Thirty (30) minutes later, 10 ng/ml of IL-18 or HSC-conditioned media (murines in the case of B16 and human ones in the case of A375) were added to some wells, and the plates were incubated for 48 hours at 37° C. with 5% CO2 Upon completion of the incubation period, the cells were fixed with […] for 1 hours, were washed and were allowed to dry in the incubator at 50° C. for 30 minutes. In following, 100 μl/well of sulforhodamine 101 (0.4% p/v) was added and they were incubated at room temperature in the dark for 30 minutes. After washing, 200 μl/well of Tris base 10 mM pH 10.5 was added and the fluorescence was measured by means of a 530 nm, 620 nm emission excitation filter plate fluorescence reader. The number of cells was calculated by extrapolating said fluorescence data on a standard straight line previously obtained based on the fluorescence emitted in an increasing number of cells.

HSE cells [3] = assay: Hydrogen peroxide production from primary cultured HSE cells (DCFH-DA probe); assay type: cell-based, mouse; settings: 2.5 μM
Text: (§1) Isolation of primary murine cultures of hepatic sinusoidal endothelial (HSE) cells. The hepatic sinusoidal cells were isolated from C57BL/6J mice (males, aged 6-8 weeks) supplied by IFFA Credo (L'Arbreole, France), followed by a purification and identification of the HSE cells following the protocol described by Vidal-Vanaclocha et al. (1993) [Vidal-Vanaclocha, F., Rocha, M., Asumendi, A. & Barbera-Guillem, E. Isolation and enrichment of two sublobular compartment-specific endothelial cell subpopulations from liver sinusoids. Hepatology, 1993, 18, 328-339]. Stable primary cultures of HSE cells were obtained after seeding the cells on a type I collagen substrate (Sigma Chemicals Co, St Louis, Mo.), and the cultures were maintained in DMEM-HCO^3−, penicillin (100 U/ml), streptomycin (100 μg/ml), supplemented with 10% fetal bovine serum at 37° C. with 5% CO2 in atmosphere at 98% humidity.
(§2) Determination of hydrogen peroxide production from HSE and MB16 cells. Primary cultures of HSE cells were treated with 10 μg/ml of the DCFH-DA fluorescent probe for 30 minutes at 37° C. and were washed to eliminate the excess fluorochromium. Afterward, fresh culture medium was added thereto in the presence or absence of 2.5 μM of the compounds JE1:2, JE2:1 or JE2:2 and the production of H202 over the course of time was determined (see FIG. 5). The hydrogen peroxide produced by the cells oxidizes the probe, converting it into a fluorescent molecule. Thus, the cell fluorescence produced by the accumulation of DCF made it possible to detect the intracellular production of hydrogen peroxide. In each cell well, it was possible to determine the relative fluorescence value (arbitrary units of fluorescence brightness) in relation to the quantity of hydrogen peroxide produced at different incubation times. In the experiments with MB16 cells, once the cells had been marked with the DCFH-DA probe, they were incubated for 300 minutes with 2.5 μM of the azaresveratrol or JE2:2 compounds, 10 ng/ml of IL-18 (FIG. 4) then having been added.

[4] = Water solubility (statement); assay type: physicochemical
HSE cells [5] = assay: MB16 cell adhesion to HSE cells treated with MC-MB16; assay type: cell-based, mouse; settings: 2.5 μM prior to MC-MB16
Text: as §1
MB16 cell adhesion to the monolayer of HSE cells in culture. The endothelial cells were isolated 24 hours prior to the adhesion test and were seeded on 24-well plate, maintaining them a minimum of 4 hours in serum-free medium before incubating them with DMEM in the presence or not of MC-MB16 for 8 hours. The synthesized compounds (JE2:2 see FIG. 6; JEM2:2-01 and JEM2:1-02 see FIG. 8A; YEF02, YEF03, YEF07, YEF05B, YEF07B and YEF05H see FIG. 10) were added to a 2.5 μM concentration prior to the MC-MB16. On the other hand, the MB16 cells were marked with 40 μg/ml from the fluorescent probe BCECF-AM (carboxyfluorescein, 2′,7′-bis-(2-carboxy-ethyl)-5-(6)carboxyfluorescein aminoxymethyl ester) supplied by Molecular Probes Inc. (Oregon, USA). Afterward, a washing process was performed with DMEM-HCO3−—to remove the excess fluorochromium, the number of viable cells being calculated by means of the trypan blue exclusion test and resuspended to a concentration of 2×10^5 cells/ml. Lastly, 1 ml of the MB16 cell suspension was added to each well on the primary HSE cell culture plate. The co-culture plates were incubator-incubated at 37° C. for 8 minutes. The percentage of cellular adhesion was calculated by means of the a fluorescence measurement system described by Vidal-Vanaclocha et al. (1994) [Vidal-Vanaclocha, F., Amézaga, C., Asumendi, A., Kaplanski, G. & Dinarello, C. A. Interleukin-1 receptor blockade reduces the number and size of murine B16 melanoma hepatic metastases. Cancer Research, 1994, 54, 2667-2672]. In the experiments with IL-18, the MB16 cells were incubated with 10 ng/ml of IL-18 for 4 hours prior to being marked with BCECF-AM and were adhered to the HSE cell plate. The results in the figures are given as values related to the adhesion percentages of the untreated HSE cells.

MB16 cells [6] = assay: Hydrogen peroxide production from MB16 cells (DCFH-DA probe); assay type: cell-based, murine
Experimental: as §2

MB16 cells [7] = assay: MB16 hepatic metastasis test after intrasplenic injection; assay type: in vivo, C57BL/6J mice; settings: JE2:2 intraperitoneal 2.5 mg/kg, 1 hour prior and days 2, 3, 4, 8, 9, 10, 11; day 12; vs PBS; P<0.01
PGE2 = assay: EIA of PGE2 in supernatant of VEGF-treated HSE cells (evidence of cyclooxygenase-2 activity); assay type: cell-based, mouse; settings: 1, 2.5 and 10 μM; 10 ng/ml VEGF for 4 hours
Experimental: PGE2 determination in HSE cell supernatants (see FIG. 11). Primary cultured HSE cells were incubated in the presence or absence of increasing concentrations (1, 2.5 and 10 μM) of the compounds JE2:2, YEF07 and YEF05B for 30 minutes. In following, 10 ng/ml of recombinant murine VEGF or the same volume of saline solution was added, 4 hours after which supernatants were collected and the PGE2 concentration determined by enzymatic immunoassay (EIA) supplied by Amersham Biosciences (Uppsala, Sweden).

TNF-alpha = assay: ELISA of TNF-alpha in supernatant of MC-MB16-treated HSE cells; assay type: cell-based, mouse; settings: 2.5 μM for 30 minutes before MC-MB16; 8 hours
Experimental: ELISA determination of the TNF-alpha concentration in the supernatant from MC-MB16-treated HSE cells. Primary cultured HSE cells were incubated in the presence or absence of 2.5 μM of the synthesized compounds (JEM2:2-01 and JEM2:1-02 see FIG. 8B) for 30 minutes, after which MB16-conditioned media were added. Eight (8) hours later, the supernatant from cultured endothelial cells were collected, filtered through 0.22 μm membranes and the concentration of TNF-alpha was then assayed using the ELISA test (R&D Systems).

| SMILES | Increase in H2O2-treated MB16 cell adhesion to immobilized VCAM-1 (in words) (MB16 cells [1]) | Increase in the number of MB16 cells by IL-18 (proliferation, in words) (MB16 cells [2]) | Endothelial (HSE) production of H2O2 (in words) (HSE cells [3]) | Increase in adhesion of MB16 cells to HSE activated by MC-MB16 / proadhesive response of HSE (in words) (HSE cells [5]) | Increase in endothelial secretion of PGE2 after VEGF (in words) (PGE2) | other results |
| --- | --- | --- | --- | --- | --- | --- |
| COC(=O)c1[nH]c(-c2ccc(O)cc2)cc1-c1cc(O)cc(O)c1 [JE1:2, 3-(3,5-Dihydroxyphenyl)-5-(4-hydroxyphenyl)-1H-pyrrole-2-methyl carboxylate] | significantly (P<0.01) inhibits | reduced said increase | inhibitory effect |  |  |  |
| COC(=O)c1[nH]c(-c2cc(O)cc(O)c2)cc1-c1ccc(O)cc1 [JE2:1, 5-(3,5-Dihydroxyphenyl)-3-(4-hydroxyphenyl)-1H-pyrrole-2-methyl carboxylate] | significantly (P<0.01) inhibits | reduced said increase | inhibitory effect |  |  |  |
| COC(=O)c1[nH]c(-c2cc(O)cc(O)c2)cc1-c1cc(O)cc(O)c1 [JE2:2, 3,5-bis(3,5-Dihydroxyphenyl)-1H-pyrrole-2-methyl carboxylate] | significantly (P<0.01) inhibits; also recorded: greatest inhibitory effect | reduced said increase; also recorded: most highly effective | inhibited | significantly (P<0.01) reduced | significantly inhibited; also recorded: dose-response | Water solubility (in words) [4]: highly water-soluble; Increase of H2O2 production of MB16 cells in response to IL-18 (in words) (MB16 cells [6]; 2.5 μM prior to IL-18): completely abrogated; H2O2 production of MB16 cells in basal conditions (in words) (MB16 cells [6]; 2.5 μM, no IL-18): inhibited; Reduction of the mean density of hepatic metastasis (MB16 cells [7]): 87%; Reduction of the volume occupied by metastatic tissue (MB16 cells [7]): 90% |
| COC(=O)c1[nH]c(-c2cc(OC)cc(OC)c2)cc1-c1cc(OC)cc(OC)c1 [JEM2:2-01, 3,5-bis(3,5-Dimethoxyphenyl)-1H-pyrrole-2-methyl carboxylate] | completely abrogated |  |  | significantly (P<0.01) reduced; also recorded: greater inhibition |  | Endothelial production of TNF-alpha induced by MC-MB16 (in words) (TNF-alpha): inhibits |
| COc1cc(OC)cc(-c2cc3c(OC)cc(OC)cc3n2C(=O)OC(C)(C)C)c1 [YEF05B, 4,6-Dimethoxy-2-(3,5-dimethoxyphenyl)-1H-indole-1-tert-butyl carboxylate] | significantly (P<0.01) inhibited |  |  | significantly (P<0.01) reduced | significantly inhibited |  |
| Oc1ccc(O)c(-c2cc3c(O)cc(O)cc3[nH]2)c1 [YEF05H, 2-(2,5-Dihydroxyphenyl)-1H-indole-4,6-diol] | significantly (P<0.01) inhibited |  |  | significantly (P<0.01) reduced |  |  |
| COc1cc(OC)cc(-c2cc3c(OC)cc(OC)cc3[nH]2)c1 [YEF07, 4,6-Dimethoxy-2-(3,5-dimethoxyphenyl)-1H-indole] | significantly (P<0.01) inhibited |  |  | significantly (P<0.01) reduced | significantly inhibited |  |
| COc1ccc(OC)c(-c2cc3c(OC)cc(OC)cc3n2C(=O)OC(C)(C)C)c1 [YEF07B, 4,6-Dimethoxy-2-(2,5-dimethoxyphenyl)-1H-indole-1-tert-butyl carboxylate] | significantly (P<0.01) inhibited |  |  | significantly (P<0.01) reduced |  |  |
